Assays:
Assay in all cases: relative viability (nuclei count vs DMSO), 5 days (fraction); higher = more cells survive
[1] = compound: O=C(CCCCCCC(=O)Nc1ccccc1)NO [Vorinostat]
How it was run: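 Acceptance criteria were a control CV below 25% and at least one doubling per plate. Lung cancer cell lines in 1536-well plates got five library-drug doses (not always all listed) √10 apart by pinning and were left 5 days with no medium change. Viability divides treated-well nuclei by vehicle-well nuclei and is the median across plates. Nuclei were counted by MetaXpress from 4× Hoechst images.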

[2] = compound: O=C(CCCCCCC(=O)Nc1ccccc1)NO [Vorinostat] + CS(=O)(=O)CCNCc1ccc(-c2ccc3ncnc(Nc4ccc(OCc5cccc(F)c5)c(Cl)c4)c3c2)o1 [Lapatinib] (partner 2 µM)
How it was run: (§1)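 Medians of duplicate plates are given as relative viability. That measure is the nuclei count in treated wells divided by the count in vehicle wells. Counts were taken on 4× images of lung cancer cell lines in 1536-well plates, 5 days after pin-tool dosing the day after seeding with one drug alone or a fixed anchor-drug dose plus five library-drug doses (not always all listed) in √10 steps.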

[3] = compound: O=C(CCCCCCC(=O)Nc1ccccc1)NO [Vorinostat] + Nc1ncn([C@H]2C[C@H](O)[C@@H](CO)O2)c(=O)n1 [Decitabine] (partner 2 µM)
How it was run: as §1

[4] = compound: O=C(CCCCCCC(=O)Nc1ccccc1)NO [Vorinostat] + N=C(N)NC(=N)NCCc1ccccc1 [Phenformin] (partner 250 µM)
How it was run: as §1

[5] = compound: O=C(CCCCCCC(=O)Nc1ccccc1)NO [Vorinostat] + COc1cccc2cc(-c3nc([C@H]4CC[C@H](C(=O)O)CC4)n4ncnc(N)c34)[nH]c12 [OSI-027] (partner 0.5 µM)
How it was run: as §1

[6] = compound: O=C(CCCCCCC(=O)Nc1ccccc1)NO [Vorinostat] + Cc1cc(Nc2cc(N3CCN(C)CC3)nc(Sc3ccc(NC(=O)C4CC4)cc3)n2)n[nH]1 [Tozasertib] (partner 0.1 µM)
How it was run: as §1

[7] = compound: O=C(CCCCCCC(=O)Nc1ccccc1)NO [Vorinostat] + CS(=O)(=O)N1CCN(Cc2cc3nc(-c4cccc5[nH]ncc45)nc(N4CCOCC4)c3s2)CC1 [Pictilisib] (partner 1 µM)
How it was run: as §1

[8] = compound: O=C(CCCCCCC(=O)Nc1ccccc1)NO [Vorinostat] + CC(=O)Nc1cccc(-n2c(=O)n(C3CC3)c(=O)c3c(Nc4ccc(I)cc4F)n(C)c(=O)c(C)c32)c1 [Trametinib] (partner 0.02 µM)
How it was run: as §1

[9] = compound: O=C(CCCCCCC(=O)Nc1ccccc1)NO [Vorinostat] + Cc1nc(Nc2ncc(C(=O)Nc3c(C)cccc3Cl)s2)cc(N2CCN(CCO)CC2)n1 [Dasatinib] (partner 0.075 µM)
How it was run: as §1

[10] = compound: O=C(CCCCCCC(=O)Nc1ccccc1)NO [Vorinostat] + CC(C)C[C@H](NC(=O)[C@H](Cc1ccccc1)NC(=O)c1cnccn1)B(O)O [Bortezomib] (partner 0.002 µM)
How it was run: as §1

[11] = compound: O=C(CCCCCCC(=O)Nc1ccccc1)NO [Vorinostat] + Nc1nc2[nH]cc(CCc3ccc(C(=O)N[C@@H](CCC(=O)O)C(=O)O)cc3)c2c(=O)[nH]1 [Pemetrexed] (partner 0.2 µM)
How it was run: as §1

[12] = compound: O=C(CCCCCCC(=O)Nc1ccccc1)NO [Vorinostat] + CC1(C)CCC(c2ccc(Cl)cc2)=C(CN2CCN(c3ccc(C(=O)NS(=O)(=O)c4ccc(N[C@H](CCN5CCOCC5)CSc5ccccc5)c(S(=O)(=O)C(F)(F)F)c4)cc3)CC2)C1 [Navitoclax] (partner 0.5 µM)
How it was run: as §1

[13] = compound: O=C(CCCCCCC(=O)Nc1ccccc1)NO [Vorinostat] + O=C(c1cc(Cc2n[nH]c(=O)c3ccccc23)ccc1F)N1CCN(C(=O)C2CC2)CC1 [Olaparib] (partner 8 µM)
How it was run: as §1

[14] = compound: O=C(CCCCCCC(=O)Nc1ccccc1)NO [Vorinostat] + CC(=O)c1c(C)c2cnc(Nc3ccc(N4CCNCC4)cn3)nc2n(C2CCCC2)c1=O [Palbociclib] (partner 0.5 µM)
How it was run: as §1

[15] = compound: O=C(CCCCCCC(=O)Nc1ccccc1)NO [Vorinostat] + COc1cc2c(Oc3ccc(NC(=O)C4(C(=O)Nc5ccc(F)cc5)CC4)cc3F)ccnc2cc1OCCCN1CCOCC1 [Foretinib] (partner 0.25 µM)
How it was run: as §1

[16] = compound: O=C(CCCCCCC(=O)Nc1ccccc1)NO [Vorinostat] + C[C@@H](Oc1cc(-c2cnn(C3CCNCC3)c2)cnc1N)c1c(Cl)ccc(F)c1Cl [Crizotinib] (partner 1 µM)
How it was run: as §1

[17] = compound: O=C(CCCCCCC(=O)Nc1ccccc1)NO [Vorinostat] + CCNC(=O)c1noc(-c2cc(C(C)C)c(O)cc2O)c1-c1ccc(CN2CCOCC2)cc1 [Luminespib] (partner 0.01 µM)
How it was run: as §1

NCI-H1650
relative viability ([1]; 0.253 µM): 1.03 | relative viability ([1]; 0.8 µM): 0.758 | relative viability ([1]; 1 µM, anchor plate): 0.583 | relative viability ([1]; 2.53 µM): 0.325 | relative viability ([1]; 8 µM): 0.163 | relative viability ([2]; first compound 0.253 µM): 0.803 | relative viability ([2]; first compound 0.8 µM): 0.484 | relative viability ([2]; first compound 2.53 µM): 0.287 | relative viability ([2]; first compound 8 µM): 0.118 | relative viability ([3]; first compound 0.253 µM): 0.351 | relative viability ([3]; first compound 0.8 µM): 0.359 | relative viability ([3]; first compound 2.53 µM): 0.27 | relative viability ([3]; first compound 8 µM): 0.135 | relative viability ([4]; first compound 0.253 µM): 0.412 | relative viability ([4]; first compound 0.8 µM): 0.393 | relative viability ([4]; first compound 2.53 µM): 0.164 | relative viability ([4]; first compound 8 µM): 0.14 | relative viability ([5]; first compound 0.253 µM): 0.581 | relative viability ([5]; first compound 0.8 µM): 0.36 | relative viability ([5]; first compound 2.53 µM): 0.167 | relative viability ([5]; first compound 8 µM): 0.145 | relative viability ([6]; first compound 0.253 µM): 0.478 | relative viability ([6]; first compound 0.8 µM): 0.293 | relative viability ([6]; first compound 2.53 µM): 0.168 | relative viability ([6]; first compound 8 µM): 0.152 | relative viability ([7]; first compound 0.253 µM): 0.542 | relative viability ([7]; first compound 0.8 µM): 0.283 | relative viability ([7]; first compound 2.53 µM): 0.181 | relative viability ([7]; first compound 8 µM): 0.124 | relative viability ([8]; first compound 0.253 µM): 0.609 | relative viability ([8]; first compound 0.8 µM): 0.542 | relative viability ([8]; first compound 2.53 µM): 0.175 | relative viability ([8]; first compound 8 µM): 0.0883 | relative viability ([9]; first compound 0.253 µM): 0.397 | relative viability ([9]; first compound 0.8 µM): 0.292 | relative viability ([9]; first compound 2.53 µM): 0.201 | relative viability ([9]; first compound 8 µM): 0.141 | relative viability ([10]; first compound 0.253 µM): 0.22 | relative viability ([10]; first compound 0.8 µM): 0.178 | relative viability ([10]; first compound 2.53 µM): 0.179 | relative viability ([10]; first compound 8 µM): 0.142 | relative viability ([11]; first compound 0.253 µM): 0.307 | relative viability ([11]; first compound 0.8 µM): 0.341 | relative viability ([11]; first compound 2.53 µM): 0.29 | relative viability ([11]; first compound 8 µM): 0.18 | relative viability ([12]; first compound 0.253 µM): 1.12 | relative viability ([12]; first compound 0.8 µM): 0.851 | relative viability ([12]; first compound 2.53 µM): 0.385 | relative viability ([12]; first compound 8 µM): 0.144 | relative viability ([13]; first compound 0.253 µM): 0.737 | relative viability ([13]; first compound 0.8 µM): 0.62 | relative viability ([13]; first compound 2.53 µM): 0.316 | relative viability ([13]; first compound 8 µM): 0.16 | relative viability ([14]; first compound 0.253 µM): 0.281 | relative viability ([14]; first compound 0.8 µM): 0.234 | relative viability ([14]; first compound 2.53 µM): 0.164 | relative viability ([14]; first compound 8 µM): 0.0922 | relative viability ([15]; first compound 0.253 µM): 1.1 | relative viability ([15]; first compound 0.8 µM): 1 | relative viability ([15]; first compound 2.53 µM): 0.648 | relative viability ([15]; first compound 8 µM): 0.14 | relative viability ([16]; first compound 0.253 µM): 0.848 | relative viability ([16]; first compound 0.8 µM): 0.519 | relative viability ([16]; first compound 2.53 µM): 0.29 | relative viability ([16]; first compound 8 µM): 0.101 | relative viability ([17]; first compound 0.253 µM): 0.2 | relative viability ([17]; first compound 0.8 µM): 0.178 | relative viability ([17]; first compound 2.53 µM): 0.171 | relative viability ([17]; first compound 8 µM): 0.184

NCI-H1623
relative viability ([1]; 0.253 µM): 0.916 | relative viability ([1]; 0.8 µM): 0.948 | relative viability ([1]; 2.53 µM): 0.358 | relative viability ([1]; 8 µM): 0.217 | relative viability ([4]; first compound 0.253 µM): 0.61 | relative viability ([4]; first compound 0.8 µM): 0.564 | relative viability ([4]; first compound 2.53 µM): 0.462 | relative viability ([4]; first compound 8 µM): 0.225 | relative viability ([5]; first compound 0.253 µM): 0.462 | relative viability ([5]; first compound 0.8 µM): 0.392 | relative viability ([5]; first compound 2.53 µM): 0.281 | relative viability ([5]; first compound 8 µM): 0.209 | relative viability ([6]; first compound 0.253 µM): 0.41 | relative viability ([6]; first compound 0.8 µM): 0.408 | relative viability ([6]; first compound 2.53 µM): 0.283 | relative viability ([6]; first compound 8 µM): 0.217 | relative viability ([9]; first compound 0.253 µM): 0.387 | relative viability ([9]; first compound 0.8 µM): 0.521 | relative viability ([9]; first compound 2.53 µM): 0.436 | relative viability ([9]; first compound 8 µM): 0.203 | relative viability ([15]; first compound 0.253 µM): 0.918 | relative viability ([15]; first compound 0.8 µM): 0.781 | relative viability ([15]; first compound 2.53 µM): 0.42 | relative viability ([15]; first compound 8 µM): 0.233 | relative viability ([17]; first compound 0.253 µM): 0.529 | relative viability ([17]; first compound 0.8 µM): 0.564 | relative viability ([17]; first compound 2.53 µM): 0.398 | relative viability ([17]; first compound 8 µM): 0.291

Source: the supplement of paper PMC10307832
